The record followed here is US11530217B1, “Antitubercular compounds” (priority 2022, dated 2022).

≈ marks a conversion by molar mass, not a printed value.

For the test, the system named is rifampicin and isoniazid-resistant MTB strain (MDR-MTB). Nature of the test: microbe, parasite or virus in culture. Format: cell-based. The conditions noted are these: Mycobacterium tuberculosis, 192 h, read-out: MIC (μg/mL) MDR-MTB.
`CCOC(=O)c1cc(C(=O)c2ccc(F)cc2)n2cc(C)cc(C)c12` [Compound 5g, Ethyl 3-(4-fluorobenzoyl)-6,8-dimethylindolizine-1-carboxylate]: the MIC stood at 4 µg/mL (≈ 11.8 µM). To `COC(=O)c1c(C(=O)OC)c2c(C)cc(C)cn2c1C(=O)c1ccc(OC)cc1` [Compound 5b, Dimethyl 3-(4-methoxybenzoyl)-6,8-dimethylindolizine-1,2-dicarboxylate] belongs 64 µg/mL (≈ 162 µM); to `COC(=O)c1c(C(=O)OC)c2c(C)cc(C)cn2c1C(=O)c1ccc(C#N)cc1` [Compound 5l, Dimethyl 3-(4-cyanobenzoyl)-6,8-dimethylindolizine-1,2-dicarboxylate], 8 µg/mL (≈ 20.5 µM); to `COC(=O)c1c(C(=O)OC)c2c(C)cc(C)cn2c1C(=O)c1ccc(Cl)cc1` [Compound 5d, Dimethyl 3-(4-chlorobenzoyl)-6,8-dimethylindolizine-1,2-dicarboxylate], 64 µg/mL (≈ 160 µM).

Take `CCOC(=O)c1cc(C(=O)c2ccc(Cl)cc2)n2cc(C)cc(C)c12` [Compound 5c, Ethyl 3-(4-chlorobenzoyl)-6,8-dimethylindolizine-1-carboxylate]: the MIC was 1 µg/mL (≈ 2.81 µM). Next, `CCOC(=O)c1cc(C(=O)c2ccc(C#N)cc2)n2cc(C)cc(C)c12` [Compound 5j, Ethyl 3-(4-cyanobenzoyl)-6,8-dimethylindolizine-1-carboxylate]: 4 µg/mL (≈ 11.5 µM); `CCOC(=O)c1cc(C(=O)c2cc(C(F)(F)F)cc(C(F)(F)F)c2)n2cc(C)cc(C)c12` [Compound 5i, Ethyl 3-(3,5-bis(trifluoromethyl)benzoyl)-6,8-dimethylindolizine-1-carboxylate]: 16 µg/mL (≈ 35 µM).

For the molecule `CCOC(=O)c1cc(C(=O)c2ccccc2[N+](=O)[O-])n2cc(C)cc(C)c12` [Compound 5h, Ethyl 6,8-dimethyl-3-(2-nitrobenzoyl)indolizine-1-carboxylate], the MIC turned out to be 4 µg/mL (≈ 10.9 µM). Next, `COC(=O)c1c(C(=O)OC)c2c(C)cc(C)cn2c1C(=O)c1ccc(C)cc1` [Compound 5m, Dimethyl 6,8-dimethyl-3-(4-methylbenzoyl)indolizine-1,2-dicarboxylate]: 1 µg/mL (≈ 2.64 µM). Next, `CCOC(=O)c1cc(C(=O)c2ccc(C)cc2)n2cc(C)cc(C)c12` [Compound 5k, Ethyl 6,8-dimethyl-3-(4-methylbenzoyl)indolizine-1-carboxylate]: 4 µg/mL (≈ 11.9 µM).
